{"source": "patent US20100227859A1", "about": "“TRICYCLIC COMPOUNDS AS MATRIX METALLOPROTEINASE INHIBITORS” (priority 2007, published 2010)"}
{"target": "purified human MMP-12 enzyme (Homo sapiens, UniProt P39900)", "sequence (P39900 106-470)": "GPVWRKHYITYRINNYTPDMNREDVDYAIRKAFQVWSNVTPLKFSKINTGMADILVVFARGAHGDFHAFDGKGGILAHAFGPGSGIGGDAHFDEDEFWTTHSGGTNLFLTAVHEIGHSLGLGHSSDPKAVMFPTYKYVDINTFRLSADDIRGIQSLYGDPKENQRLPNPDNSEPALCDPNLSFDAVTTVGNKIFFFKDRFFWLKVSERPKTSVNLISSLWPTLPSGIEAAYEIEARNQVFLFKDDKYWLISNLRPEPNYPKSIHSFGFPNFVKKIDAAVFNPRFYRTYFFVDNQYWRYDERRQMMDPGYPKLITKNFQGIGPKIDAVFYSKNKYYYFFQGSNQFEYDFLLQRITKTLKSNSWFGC", "assay": "MMP-12 FRET assay", "format": "biochemical", "settings": "substrate 20 μM, room temperature", "outline": "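Initial fluorescence rate (325/395 nm) of cleavage of MCA-Pro-Leu-Gly-Leu-Dpa(DNP)-Ala-Arg, 20 μM final, was followed for 30 min at room temperature after a 30 min enzyme–compound preincubation. Buffer: 50 mM HEPES pH 7.4, 100 mM NaCl, 5 mM CaCl2, 0.005% Brij-35, with 10% final DMSO. IC50 came from a Hill-type fit of rate versus inhibitor concentration.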", "units": {"IC50": "nM"}}
{"smiles": "CC(C)Cc1ncc(-c2ccc3oc4cc(S(=O)(=O)N[C@H](C(=O)O)C(C)C)ccc4c3c2)s1", "note": "[Compound 248, (S)-2-(8-(2-isobutylthiazol-5-yl)dibenzo[b,d]furan-3-sulfonamido)-3-methylbutanoic acid]", "IC50": "< 1.5"}
{"smiles": "CC(C)Cc1ncc(-c2ccc3c(c2)oc2cc(S(=O)(=O)N[C@H](C(=O)O)C(C)C)ccc23)s1", "note": "[Compound 249, (S)-2-(7-(2-isobutylthiazol-5-yl)dibenzo[b,d]furan-3-sulfonamido)-3-methylbutanoic acid]", "IC50": 7.8}
{"smiles": "CC(C)[C@H](NS(=O)(=O)c1ccc2c(c1)oc1cc(-c3nnn[nH]3)ccc12)C(=O)O", "note": "[Compound 250, (S)-2-(7-(1H-tetrazol-5-yl)dibenzo[b,d]furan-3-sulfonamido)-3-methylbutanoic acid]", "IC50": 239}
{"smiles": "O=C(O)CNS(=O)(=O)c1ccc2c(c1)oc1ccc(-c3nccs3)cc12", "note": "[Compound 251, 2-(8-(thiazol-2-yl)dibenzo[b,d]furan-3-sulfonamido)acetic acid]", "IC50": 17}
{"smiles": "CC(C)C[C@H](NS(=O)(=O)c1ccc2c(c1)oc1ccc(-c3noc(C(C)(C)C)n3)cc12)C(=O)O", "note": "[Compound 252, (S)-2-(8-(5-tert-butyl-1,2,4-oxadiazol-3-yl)dibenzo[b,d]furan-3-sulfonamido)-4-methylpentanoic acid]", "IC50": 12}
{"smiles": "CC(C)C[C@@H](NS(=O)(=O)c1ccc2c(c1)oc1ccc(-c3noc(C(C)(C)C)n3)cc12)C(=O)O", "note": "[Compound 253, (R)-2-(8-(5-tert-butyl-1,2,4-oxadiazol-3-yl)dibenzo[b,d]furan-3-sulfonamido)-4-methylpentanoic acid]", "IC50": 17}
{"smiles": "CC(C)(C)c1nc(-c2ccc3oc4cc(S(=O)(=O)N[C@H](C(=O)O)c5ccccc5)ccc4c3c2)no1", "note": "[Compound 254, (S)-2-(8-(5-tert-butyl-1,2,4-oxadiazol-3-yl)dibenzo[b,d]furan-3-sulfonamido)-2-phenylacetic acid]", "IC50": 21}
{"smiles": "CC(C)(C)c1nc(-c2ccc3oc4cc(S(=O)(=O)N[C@@H](C(=O)O)c5ccccc5)ccc4c3c2)no1", "note": "[Compound 255, (R)-2-(8-(5-tert-butyl-1,2,4-oxadiazol-3-yl)dibenzo[b,d]furan-3-sulfonamido)-2-phenylacetic acid]", "IC50": 21}
{"smiles": "CC(C)(C)c1nc(-c2ccc3oc4cc(S(=O)(=O)N[C@H](Cc5c[nH]c6ccccc56)C(=O)O)ccc4c3c2)no1", "note": "[Compound 256, (R)-2-(8-(5-tert-butyl-1,2,4-oxadiazol-3-yl)dibenzo[b,d]furan-3-sulfonamido)-3-(1H-indol-3-yl)propanoic acid]", "IC50": 129}
{"smiles": "CC(C)(C)c1nc(-c2ccc3oc4cc(S(=O)(=O)N[C@H](C(=O)O)C(C)(C)C)ccc4c3c2)no1", "note": "[Compound 257, (S)-2-(8-(5-tert-butyl-1,2,4-oxadiazol-3-yl)dibenzo[b,d]furan-3-sulfonamido)-3,3-dimethylbutanoic acid]", "IC50": 9.1}
{"smiles": "CC(C)[C@H](NS(=O)(=O)c1ccc2c(c1)oc1ccc(-c3noc(C4CCOCC4)n3)cc12)C(=O)O", "note": "[Compound 260, (S)-3-methyl-2-(8-(5-(tetrahydro-2H-pyran-4-yl)-1,2,4-oxadiazol-3-yl)dibenzo[b,d]furan-3-sulfonamido)butanoic acid]", "IC50": 1.7}
{"smiles": "CC(C)[C@H](NS(=O)(=O)c1ccc2c(c1)oc1ccc(-c3noc(CC(C)(C)C)n3)cc12)C(=O)O", "note": "[Compound 261, (S)-3-methyl-2-(8-(5-neopentyl-1,2,4-oxadiazol-3-yl)dibenzo[b,d]furan-3-sulfonamido)butanoic acid]", "IC50": 5.4}
{"smiles": "CC(C)[C@H](NS(=O)(=O)c1ccc2c(c1)oc1ccc(-c3noc(C4CCCC4)n3)cc12)C(=O)O", "note": "[Compound 263, (S)-2-(8-(5-cyclopentyl-1,2,4-oxadiazol-3-yl)dibenzo[b,d]furan-3-sulfonamido)-3-methylbutanoic acid]", "IC50": 2.5}
{"smiles": "CC(C)[C@H](NS(=O)(=O)c1ccc2c(c1)oc1ccc(-c3noc(-c4cccs4)n3)cc12)C(=O)O", "note": "[Compound 264, (S)-3-methyl-2-(8-(5-(thiophen-2-yl)-1,2,4-oxadiazol-3-yl)dibenzo[b,d]furan-3-sulfonamido)butanoic acid]", "IC50": "< 1.5"}
{"smiles": "CC(C)[C@H](NS(=O)(=O)c1ccc2c(c1)oc1ccc(-c3noc(Cc4ccccc4)n3)cc12)C(=O)O", "note": "[Compound 266, (S)-2-(8-(5-benzyl-1,2,4-oxadiazol-3-yl)dibenzo[b,d]furan-3-sulfonamido)-3-methylbutanoic acid]", "IC50": 4}
{"smiles": "CC(C)[C@H](NS(=O)(=O)c1ccc2c(c1)oc1ccc(-c3noc(-c4ccc(F)cc4F)n3)cc12)C(=O)O", "note": "[Compound 269, (S)-2-(8-(5-(2,4-difluorophenyl)-1,2,4-oxadiazol-3-yl)dibenzo[b,d]furan-3-sulfonamido)-3-methylbutanoic acid]", "IC50": "< 1.5"}
{"smiles": "CC(C)[C@H](NS(=O)(=O)c1ccc2c(c1)oc1ccc(-c3noc(-c4ccc(Cl)cc4Cl)n3)cc12)C(=O)O", "note": "[Compound 270, (S)-2-(8-(5-(2,4-dichlorophenyl)-1,2,4-oxadiazol-3-yl)dibenzo[b,d]furan-3-sulfonamido)-3-methylbutanoic acid]", "IC50": "< 1.5"}
{"smiles": "CC(C)[C@H](NS(=O)(=O)c1ccc2c(c1)oc1ccc(-c3noc(-c4ccc(C(F)(F)F)cc4)n3)cc12)C(=O)O", "note": "[Compound 271, (S)-3-methyl-2-(8-(5-(4-(trifluoromethyl)phenyl)-1,2,4-oxadiazol-3-yl)dibenzo[b,d]furan-3-sulfonamido)butanoic acid]", "IC50": 3.7}
{"smiles": "CC(C)[C@H](NS(=O)(=O)c1ccc2c(c1)oc1ccc(-c3noc(-c4ccc(F)cc4)n3)cc12)C(=O)O", "note": "[Compound 272, (S)-2-(8-(5-(4-fluorophenyl)-1,2,4-oxadiazol-3-yl)dibenzo[b,d]furan-3-sulfonamido)-3-methylbutanoic acid]", "IC50": "< 1.5"}
{"smiles": "CC(C)[C@H](NS(=O)(=O)c1ccc2c(c1)oc1ccc(C(=O)O)cc12)C(=O)O", "note": "[Compound 273, (S)-7-(N-(1-carboxy-2-methylpropyl)sulfamoyl)dibenzo[b,d]furan-2-carboxylic acid]", "IC50": 210}
{"smiles": "CC(C)(C)c1nc(-c2ccc3c(c2)oc2ccc(S(=O)(=O)NCC(=O)O)cc23)no1", "note": "[Compound 274, 2-(7-(5-tert-butyl-1,2,4-oxadiazol-3-yl)dibenzo[b,d]furan-2-sulfonamido)acetic acid]", "IC50": 60}
{"smiles": "CC(C)(C)c1nc(-c2ccc3c(c2)oc2ccc(S(=O)(=O)N[C@H](Cc4ccccc4)C(=O)O)cc23)no1", "note": "[Compound 275, (R)-2-(7-(5-tert-butyl-1,2,4-oxadiazol-3-yl)dibenzo[b,d]furan-2-sulfonamido)-3-phenylpropanoic acid]", "IC50": 4.1}
{"smiles": "CC(C)[C@H](NS(=O)(=O)c1ccc2oc3cc(-c4noc(C(C)(C)C)n4)ccc3c2c1)C(=O)O", "note": "[Compound 276, (S)-2-(7-(5-tert-butyl-1,2,4-oxadiazol-3-yl)dibenzo[b,d]furan-2-sulfonamido)-3-methylbutanoic acid]", "IC50": 34}
{"smiles": "CC(C)(NS(=O)(=O)c1ccc2oc3cc(-c4noc(C(C)(C)C)n4)ccc3c2c1)C(=O)O", "note": "[Compound 277, 2-(7-(5-tert-butyl-1,2,4-oxadiazol-3-yl)dibenzo[b,d]furan-2-sulfonamido)-2-methylpropanoic acid]", "IC50": 130}
{"smiles": "CC(C)C[C@@H](NS(=O)(=O)c1ccc2oc3cc(-c4noc(C(C)(C)C)n4)ccc3c2c1)C(=O)O", "note": "[Compound 278, (R)-2-(7-(5-tert-butyl-1,2,4-oxadiazol-3-yl)dibenzo[b,d]furan-2-sulfonamido)-4-methylpentanoic acid]", "IC50": 7.2}
{"smiles": "CC(C)C[C@H](NS(=O)(=O)c1ccc2oc3cc(-c4noc(C(C)(C)C)n4)ccc3c2c1)C(=O)O", "note": "[Compound 279, (S)-2-(7-(5-tert-butyl-1,2,4-oxadiazol-3-yl)dibenzo[b,d]furan-2-sulfonamido)-4-methylpentanoic acid]", "IC50": 61}
{"smiles": "CC(C)(C)c1nc(-c2ccc3c(c2)oc2ccc(S(=O)(=O)N[C@@H](Cc4c[nH]c5ccccc45)C(=O)O)cc23)no1", "note": "[Compound 280]", "IC50": 15}
{"smiles": "CC(C)(C)c1nc(-c2ccc3c(c2)oc2ccc(S(=O)(=O)N[C@H](C(=O)O)c4ccccc4)cc23)no1", "note": "[Compound 281, (S)-2-(7-(5-tert-butyl-1,2,4-oxadiazol-3-yl)dibenzo[b,d]furan-2-sulfonamido)-2-phenylacetic acid]", "IC50": 90}
{"smiles": "CC(C)(C)c1nc(-c2ccc3c(c2)oc2ccc(S(=O)(=O)N[C@H](C(=O)O)C(C)(C)C)cc23)no1", "note": "[Compound 282, (S)-2-(7-(5-tert-butyl-1,2,4-oxadiazol-3-yl)dibenzo[b,d]furan-2-sulfonamido)-3,3-dimethylbutanoic acid]", "IC50": 150}
{"smiles": "CC(C)[C@H](NS(=O)(=O)c1ccc2c(c1)oc1ccc(-c3nc(-c4ccc(C(F)(F)F)cc4)cs3)cc12)C(=O)O", "note": "[Compound 283, (S)-3-methyl-2-(8-(4-(4-(trifluoromethyl)phenyl)thiazol-2-yl)dibenzo[b,d]furan-3-sulfonamido)butanoic acid]", "IC50": "< 1.5"}
{"smiles": "CC(C)[C@H](NS(=O)(=O)c1ccc2c(c1)oc1ccc(-c3nc(-c4ccc(F)cc4)cs3)cc12)C(=O)O", "note": "[Compound 284, (S)-2-(8-(4-(4-fluorophenyl)thiazol-2-yl)dibenzo[b,d]furan-3-sulfonamido)-3-methylbutanoic acid]", "IC50": 18}
{"smiles": "CC(C)[C@@H](NS(=O)(=O)c1ccc2sc3cc(-c4nccs4)ccc3c2c1)C(=O)O", "note": "[Compound 285, (R)-3-methyl-2-(7-(thiazol-2-yl)dibenzo[b,d]thiophene-2-sulfonamido)butanoic acid]", "IC50": 220}
{"smiles": "CC(C)[C@@H](NS(=O)(=O)c1ccc2sc3cc(-c4nc5ccccc5s4)ccc3c2c1)C(=O)O", "note": "[Compound 286, (R)-2-(7-(benzo[d]thiazol-2-yl)dibenzo[b,d]thiophene-2-sulfonamido)-3-methylbutanoic acid]", "IC50": 130}
{"smiles": "CC(C)[C@@H](NS(=O)(=O)c1ccc2sc3cc(-c4ccco4)ccc3c2c1)C(=O)O", "note": "[Compound 287, (R)-2-(7-(furan-2-yl)dibenzo[b,d]thiophene-2-sulfonamido)-3-methylbutanoic acid]", "IC50": 70}
